Source: ChEMBL document CHEMBL2439971, “Design, synthesis and antiproliferative evaluation of fluorenone analogs with DNA topoisomerase I inhibitory properties” (Bioorg Med Chem, 2013)

Assays:
Assay type in all cases: functional
SW-620 = test: Cytotoxicity against human SW620 cells at 10 uM after 48 hrs by sulforhodamine B assay relative to control
KM12 [1] = test: Cytotoxicity against human KM12 cells at 10 uM after 48 hrs by sulforhodamine B assay relative to control
SN12C = test: Cytotoxicity against human SN12C cells at 10 uM after 48 hrs by sulforhodamine B assay relative to control
U-251 [2] = test: Cytotoxicity against human U251 cells after 48 hrs by sulforhodamine B assay; settings: U-251, 48 h
ACHN = test: Cytotoxicity against human ACHN cells after 48 hrs by sulforhodamine B assay
SK-MEL-5 = test: Cytotoxicity against human SK-MEL-5 cells at 10 uM after 48 hrs by sulforhodamine B assay relative to control
SK-MEL-2 [3] = test: Cytotoxicity against human SK-MEL-2 cells after 48 hrs by sulforhodamine B assay; settings: SK-MEL-2, 48 h
HT-29 = test: Cytotoxicity against human HT-29 cells after 48 hrs by sulforhodamine B assay; settings: HT-29, 48 h
HCT-15 = test: Cytotoxicity against human HCT15 cells at 10 uM after 48 hrs by sulforhodamine B assay relative to control
NCI-H460 = test: Cytotoxicity against human NCI-H460 cells after 48 hrs by sulforhodamine B assay; settings: NCI-H460, 48 h
HL-60(TB) = test: Cytotoxicity against human HL-60(TB) cells after 48 hrs by sulforhodamine B assay; settings: HL-60, 48 h
[4] = Cytotoxicity against human Hs 578T cells after 48 hrs by sulforhodamine B assay
786-0 [5] = test: Cytotoxicity against human 786-0 cells after 48 hrs by sulforhodamine B assay; settings: 786-0, 48 h
CAKI-1 = test: Cytotoxicity against human CAKI-1 cells at 10 uM after 48 hrs by sulforhodamine B assay relative to control
OVCAR-4 = test: Cytotoxicity against human OVCAR4 cells after 48 hrs by sulforhodamine B assay; settings: OVCAR-4, 48 h
SR [6] = test: Cytotoxicity against human SR cells at 10 uM after 48 hrs by sulforhodamine B assay relative to control
[7] = Cytotoxicity against human EKVX cells at 10 uM after 48 hrs by sulforhodamine B assay relative to control
TK-10 = test: Cytotoxicity against human TK10 cells at 10 uM after 48 hrs by sulforhodamine B assay relative to control
SNB-19 = test: Cytotoxicity against human SNB19 cells at 10 uM after 48 hrs by sulforhodamine B assay relative to control
NCI-H322M [8] = test: Cytotoxicity against human NCI-H322M cells at 10 uM after 48 hrs by sulforhodamine B assay relative to control
LOX IMVI [9] = test: Cytotoxicity against human LOXIMVI cells at 10 uM after 48 hrs by sulforhodamine B assay relative to control
LOX IMVI [10] = test: Cytotoxicity against human LOXIMVI cells after 48 hrs by sulforhodamine B assay
A549 = test: Cytotoxicity against human A549/ATCC cells after 48 hrs by sulforhodamine B assay; settings: A549, 48 h
SF-295 = test: Cytotoxicity against human SF295 cells at 10 uM after 48 hrs by sulforhodamine B assay relative to control
OVCAR-5 = test: Cytotoxicity against human OVCAR5 cells after 48 hrs by sulforhodamine B assay; settings: OVCAR-5, 48 h
HOP-92 = test: Cytotoxicity against human HOP92 cells after 48 hrs by sulforhodamine B assay; settings: HOP-92, 48 h
COLO 205 = test: Cytotoxicity against human COLO205 cells after 48 hrs by sulforhodamine B assay; settings: COLO 205, 48 h
786-0 [11] = test: Cytotoxicity against human 786-0 cells at 10 uM after 48 hrs by sulforhodamine B assay relative to control
HCC 2998 = test: Cytotoxicity against human HCC2998 cells at 10 uM after 48 hrs by sulforhodamine B assay relative to control
SK-MEL-2 [12] = test: Cytotoxicity against human SK-MEL-2 cells at 10 uM after 48 hrs by sulforhodamine B assay relative to control
NCI-H322M [13] = test: Cytotoxicity against human NCI-H322M cells after 48 hrs by sulforhodamine B assay
KM12 [14] = test: Cytotoxicity against human KM12 cells after 48 hrs by sulforhodamine B assay; settings: KM12, 48 h
U-251 [15] = test: Cytotoxicity against human U251 cells at 10 uM after 48 hrs by sulforhodamine B assay relative to control
SR [16] = test: Cytotoxicity against human SR cells after 48 hrs by sulforhodamine B assay
RXF 393 = test: Cytotoxicity against human RXF393 cells after 48 hrs by sulforhodamine B assay; settings: RXF 393, 48 h
UACC-62 = test: Cytotoxicity against human UACC62 cells at 10 uM after 48 hrs by sulforhodamine B assay relative to control
MDA-MB-468 = test: Cytotoxicity against human MDA-MB-468 cells at 10 uM after 48 hrs by sulforhodamine B assay relative to control
SF-268 = test: Cytotoxicity against human SF268 cells after 48 hrs by sulforhodamine B assay; settings: SF-268, 48 h
NCI-H522 [17] = test: Cytotoxicity against human NCI-H522 cells at 10 uM after 48 hrs by sulforhodamine B assay relative to control
NCI-H522 [18] = test: Cytotoxicity against human NCI-H522 cells after 48 hrs by sulforhodamine B assay; settings: NCI-H522, 48 h
[19] = read-out: LC50 (the source's name)

CCCCNCC(=O)Nc1ccc2c(c1)C(=O)c1cc(NC(=O)CNCCCC)ccc1-2
Activity (SW-620): -4.84% | Activity (KM12 [1]): 30.09% | Activity (SN12C): 67.76% | GI50 (U-251 [2]): 1310 nM | TGI (U-251 [2]): 2650 nM | CC50 (U-251 [2]; [19]): 5.34 µM | GI50 (ACHN): 1400 nM | TGI (ACHN): 4.14 µM | CC50 (ACHN; [19]): 14.9 µM | Activity (SK-MEL-5): -87.04% | GI50 (SK-MEL-2 [3]): 1760 nM | TGI (SK-MEL-2 [3]): 3.3 µM | CC50 (SK-MEL-2 [3]; [19]): 6.18 µM | GI50 (HT-29): 1100 nM | TGI (HT-29): 2530 nM | CC50 (HT-29; [19]): 5.86 µM | Activity (HCT-15): 24.17% | GI50 (NCI-H460): 1490 nM | TGI (NCI-H460): 3.35 µM | CC50 (NCI-H460; [19]): 7.53 µM | GI50 (HL-60(TB)): 1100 nM | TGI (HL-60(TB)): 2770 nM | CC50 (HL-60(TB); [19]): 6.98 µM | GI50 [4]: 2630 nM | TGI [4]: 9.23 µM | CC50 [4, 19]: 70.9 µM | GI50 (786-0 [5]): 1430 nM | TGI (786-0 [5]): 2820 nM | CC50 (786-0 [5]; [19]): 5.56 µM | Activity (CAKI-1): 62.66% | GI50 (OVCAR-4): 2060 nM | TGI (OVCAR-4): 5.02 µM | CC50 (OVCAR-4; [19]): 15.9 µM | Activity (SR [6]): -56.48% | Activity [7]: 58.12% | Activity (TK-10): 7.32% | Activity (SNB-19): 39.02% | Activity (NCI-H322M [8]): -0.61% | Activity (LOX IMVI [9]): -78.38% | GI50 (LOX IMVI [10]): 1050 nM | TGI (LOX IMVI [10]): 2340 nM | CC50 (LOX IMVI [10]; [19]): 5.18 µM | GI50 (A549): 1530 nM | TGI (A549): 3.37 µM | CC50 (A549; [19]): 7.39 µM | Activity (SF-295): -26.11% | GI50 (OVCAR-5): 3.06 µM | TGI (OVCAR-5): 10.6 µM | CC50 (OVCAR-5; [19]): 34.5 µM | GI50 (HOP-92): 1400 nM | TGI (HOP-92): 3.77 µM | CC50 (HOP-92; [19]): 10.6 µM | GI50 (COLO 205): 1270 nM | TGI (COLO 205): 2640 nM | CC50 (COLO 205; [19]): 5.48 µM | Activity (786-0 [11]): -73.24% | Activity (HCC 2998): -50.75% | Activity (SK-MEL-2 [12]): -63.34% | GI50 (NCI-H322M [13]): 2120 nM | TGI (NCI-H322M [13]): 6.93 µM | CC50 (NCI-H322M [13]; [19]): 31.5 µM | GI50 (KM12 [14]): 1640 nM | TGI (KM12 [14]): 3.38 µM | CC50 (KM12 [14]; [19]): 7 µM | Activity (U-251 [15]): -57.52% | GI50 (SR [16]): 220 nM | TGI (SR [16]): 530 nM | CC50 (SR [16]; [19]): 3.44 µM | GI50 (RXF 393): 1830 nM | TGI (RXF 393): 3.52 µM | CC50 (RXF 393; [19]): 6.78 µM | Activity (UACC-62): 7.57% | Activity (MDA-MB-468): -67.44% | GI50 (SF-268): 1690 nM | TGI (SF-268): 3.97 µM | CC50 (SF-268; [19]): 9.33 µM | Activity (NCI-H522 [17]): -50.74% | GI50 (NCI-H522 [18]): 2080 nM | TGI (NCI-H522 [18]): 4.08 µM | CC50 (NCI-H522 [18]; [19]): 7.99 µM
